These results are taken from paper PMC2603005, “Structural insights into phenylethanolamines high-affinity binding site in NR2B from binding and molecular modeling studies” (Molecular Brain, 2008).

The target of experiment [1] is NR1-1a/NR2B receptors (Rattus norvegicus, UniProt P35439+Q00960). As to the kind of experiment: cell-based.
Method: cRNA for rat NR1-1a (hereafter NR1) and NR2B were synthesized in vitro and injected (5–10 ng) into stage V-VI Xenopus laevis oocytes, isolated as previously described [22, 26, 58]. Two-electrode voltage-clamp current recordings were made 2–7 days post injection. The recording solution contained (in mM) 90 NaCl, 3 KCl, 10 HEPES, 0.5 BaCl2, 0.01 EDTA, 0.05 glycine (23°C); pH was adjusted to 7.3 with NaOH. EDTA (10 μM) was added to chelate contaminant extracellular divalent ions, including trace amounts of Zn^2+. Solution exchange was computer controlled through an 8-modular valve positioner (Digital MVP Valve, Hamilton Company, Reno, NV). Voltage and current electrodes were filled with 0.3 and 3.0 M KCl, respectively, and current responses recorded at a holding potential of -40 mV. […] Data were pooled among oocytes and mean composite concentration-effect curve was fitted by the following equation:
Experiment [2] addresses T1, 6 × His-ATD2B (amino-terminal domain of NR2B subunit), wild type (Rattus norvegicus, UniProt Q00960). As to the kind of experiment: biochemical.
Method: DLS measurements were made with DynaPro (Protein Solutions) and CD spectra were measured at 25°C on a Jasco J-715 Spectropolarimeter equipped with a 0.1 cm path-length cuvette (Jasco Corporation, Tokyo, Japan) as described previously [41]. For the CD assays, the refolded protein was concentrated to 1 mg/ml using Vivaspin 2 ml concentrator (Vivascience). […] The final change of assay volume was < 3% for all ligands investigated. The CD spectra of the wild-type and mutant 6 × His-ATD2B proteins in the absence and presence of a ligand were recorded from 190 to 250 nm. The CD spectrum of Buffer 2 was subtracted from all the CD spectra obtained. […] All experiments were performed using at least two separate batches of induced and refolded 6 × His-ATD2B proteins (both wild-type and mutants), each batch in duplicates or triplicates. The dose-dependent binding curves of ligands to 6 × His-ATD2B were fitted by the following equation:
Y = Bmax [ligand]/(KD + [ligand])
where Y is the shift in ellipticity, [ligand] is the concentration of ligand investigated and KD is the dissociation equilibrium constant.
The experiment data were analyzed by nonlinear curve fitting (ORIGIN7, USA). All pooled data were expressed as mean ± SEM.
The target of experiment [3] is T1, 6 × His-ATD2B (amino-terminal domain of NR2B subunit), wild type. As to the kind of experiment: CD ligand displacement: RO25,6981 displacing saturating ifenprodil on 6 × His-ATD2B. The format is binding. Set-up: representation of the ATD2B construct (Arg27 to Arg393) with 6xHis-tag and linker; made in house. Here is the method:
DLS measurements were made with DynaPro (Protein Solutions) and CD spectra were measured at 25°C on a Jasco J-715 Spectropolarimeter equipped with a 0.1 cm path-length cuvette (Jasco Corporation, Tokyo, Japan) as described previously. For the CD assays, the refolded protein was concentrated to 1 mg/ml using Vivaspin 2 ml concentrator (Vivascience). […] The CD spectra of the wild-type and mutant 6 × His-ATD2B proteins in the absence and presence of a ligand were recorded from 190 to 250 nm. The CD spectrum of Buffer 2 was subtracted from all the CD spectra obtained. […] All experiments were performed using at least two separate batches of induced and refolded 6 × His-ATD2B proteins (both wild-type and mutants), each batch in duplicates or triplicates. The dose-dependent binding curves of ligands to 6 × His-ATD2B were fitted by the following equation: […]

The subject of experiment [4] is NR1/NR2B(D101A). Set-up: method as in PMID 14534359. Particulars: D101A mutation, HEK293 membranes; cited from earlier work.
Experiment [5] has as its system NR1/NR2B(F176A). The arrangement: method as in PMID 14534359. Particulars: F176A mutation, HEK293 membranes; cited from earlier work.
Experiment [6] deals with rat brain cortex. Particulars: [3H]ifenprodil binding; cited from earlier work.
For experiment [7], the target named is NR1/NR2B. Set-up: method as in PMID 15769547, PMID 15056006. Particulars: NR1/NR2B transfected HEK293 and mouse L(tk-) cell line; cited from earlier work.

Like-named read-outs stand apart in the source and are kept apart here.

T1 sequence (Q00960 27-393): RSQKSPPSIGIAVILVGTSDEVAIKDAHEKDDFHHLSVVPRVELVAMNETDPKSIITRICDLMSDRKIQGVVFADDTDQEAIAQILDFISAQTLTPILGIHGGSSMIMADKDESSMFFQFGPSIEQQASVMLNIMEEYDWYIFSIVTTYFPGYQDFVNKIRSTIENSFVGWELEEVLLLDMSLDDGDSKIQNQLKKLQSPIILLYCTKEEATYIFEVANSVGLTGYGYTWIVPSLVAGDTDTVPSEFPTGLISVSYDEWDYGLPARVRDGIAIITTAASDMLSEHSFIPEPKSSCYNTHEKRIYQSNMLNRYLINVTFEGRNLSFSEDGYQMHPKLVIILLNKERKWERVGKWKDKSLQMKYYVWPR
Sequence of NR1-1a/NR2B receptors (Q00960 27-1482, other chains not shown): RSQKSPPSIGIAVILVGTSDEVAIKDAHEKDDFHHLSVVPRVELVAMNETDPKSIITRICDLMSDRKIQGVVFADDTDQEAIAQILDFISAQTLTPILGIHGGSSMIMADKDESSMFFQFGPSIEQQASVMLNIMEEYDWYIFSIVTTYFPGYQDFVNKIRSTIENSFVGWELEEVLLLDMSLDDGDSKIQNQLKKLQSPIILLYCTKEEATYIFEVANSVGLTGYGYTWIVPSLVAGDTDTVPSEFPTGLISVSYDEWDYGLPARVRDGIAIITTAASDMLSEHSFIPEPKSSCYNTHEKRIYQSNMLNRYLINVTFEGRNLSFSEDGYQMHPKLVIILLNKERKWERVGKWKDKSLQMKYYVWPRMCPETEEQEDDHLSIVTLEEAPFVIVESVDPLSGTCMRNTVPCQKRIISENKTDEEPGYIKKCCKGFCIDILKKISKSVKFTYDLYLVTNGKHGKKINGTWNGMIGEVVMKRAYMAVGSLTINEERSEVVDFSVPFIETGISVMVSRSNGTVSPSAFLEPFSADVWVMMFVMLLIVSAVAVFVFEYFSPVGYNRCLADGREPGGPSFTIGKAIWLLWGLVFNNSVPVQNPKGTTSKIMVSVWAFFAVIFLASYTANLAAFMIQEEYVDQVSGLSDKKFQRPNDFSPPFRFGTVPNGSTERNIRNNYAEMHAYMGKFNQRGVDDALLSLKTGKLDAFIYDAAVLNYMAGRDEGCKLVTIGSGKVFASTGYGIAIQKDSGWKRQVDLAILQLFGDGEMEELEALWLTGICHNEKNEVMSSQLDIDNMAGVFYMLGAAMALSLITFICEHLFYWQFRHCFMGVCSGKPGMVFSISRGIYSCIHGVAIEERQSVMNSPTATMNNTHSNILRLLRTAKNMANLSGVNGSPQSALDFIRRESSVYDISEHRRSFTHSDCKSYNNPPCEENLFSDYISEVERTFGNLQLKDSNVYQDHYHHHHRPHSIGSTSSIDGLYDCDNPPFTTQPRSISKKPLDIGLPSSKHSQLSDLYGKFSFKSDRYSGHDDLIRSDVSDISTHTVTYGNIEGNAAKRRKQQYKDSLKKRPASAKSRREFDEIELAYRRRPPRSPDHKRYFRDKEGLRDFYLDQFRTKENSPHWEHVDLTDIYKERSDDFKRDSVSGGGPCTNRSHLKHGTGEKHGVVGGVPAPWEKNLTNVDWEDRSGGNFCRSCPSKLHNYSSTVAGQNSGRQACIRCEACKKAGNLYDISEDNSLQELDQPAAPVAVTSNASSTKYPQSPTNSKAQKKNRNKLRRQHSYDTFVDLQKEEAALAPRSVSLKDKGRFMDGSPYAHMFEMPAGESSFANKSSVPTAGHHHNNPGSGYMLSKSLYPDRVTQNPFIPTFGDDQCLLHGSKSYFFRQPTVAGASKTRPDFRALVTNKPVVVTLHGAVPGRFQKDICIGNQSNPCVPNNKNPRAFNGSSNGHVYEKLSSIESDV

For `C[C@@H](CN1CCC(Cc2ccccc2)CC1)[C@@H](O)c1ccc(O)cc1` [RO25,6981], the half-maximal inhibitory concentration (IC50) in experiment [1] was 59 ± 1 nM. Moreover, the dissociation constant Kd in experiment [2] (Buffer-9 refolded protein, CD at 25°C, mean ± S.E., n = 5) is 7 ± 3 nM; in experiment [2] (Buffer-12 refolded protein, CD at 25°C, n = 5) it was 4 ± 1 nM; in experiment [2] (Buffer-13 refolded protein, CD) it was 4 ± 2 nM. Moreover, the inhibition constant Ki is 4 ± 1 nM in experiment [3] (Affinity (Ki) on displacing ifenprodil); 2 ± 1 nM in experiment [3] (Affinity (Ki) on displacing ifenprodil, Buffer-12 refolded protein, in presence of saturating 5 μM ifenprodil); 3 ± 1 nM in experiment [3] (Affinity (Ki) on displacing ifenprodil, Buffer-13 refolded protein, in presence of saturating 5 μM ifenprodil); 2 to 4 nM in experiment [3] (range over Buffers -9, -12 and -13, n = 5 per buffer, read-out: Ki values).
In the case of [^3H]RO25,6981, the “[3H]RO25,6981 binding to membranes” value in experiment [4] and in experiment [5] was “complete loss” throughout.
In the case of `CC(C(O)c1ccc(O)cc1)N1CCC(Cc2ccccc2)CC1` (stereo not drawn) [[^3H]ifenprodil], the Kd is 36 nM in experiment [6] and 34 to 79 nM in experiment [7].
